According to patent publication US10759783B2, “Biaryl inhibitors of Bruton'S tyrosine kinase” (BIOGEN MA INC., priority 2013, dated 2020):

How the values were obtained:
[1] = target: BTK (phospho-BTK) in human whole blood (Homo sapiens, UniProt Q06187); assay: In vitro PD assay in human whole blood (pBTK assay)
[2] = target: T1, BTK enzyme (Homo sapiens, UniProt Q06187); assay: In vitro BTK kinase assay: BTK-POLYGAT-LS assay; format: biochemical; conditions: ATP 10 μM, read-out: IC50 (10uMATP)
T1 construct: purchased Upstate 14-552
T1 sequence (Q06187 whole entry): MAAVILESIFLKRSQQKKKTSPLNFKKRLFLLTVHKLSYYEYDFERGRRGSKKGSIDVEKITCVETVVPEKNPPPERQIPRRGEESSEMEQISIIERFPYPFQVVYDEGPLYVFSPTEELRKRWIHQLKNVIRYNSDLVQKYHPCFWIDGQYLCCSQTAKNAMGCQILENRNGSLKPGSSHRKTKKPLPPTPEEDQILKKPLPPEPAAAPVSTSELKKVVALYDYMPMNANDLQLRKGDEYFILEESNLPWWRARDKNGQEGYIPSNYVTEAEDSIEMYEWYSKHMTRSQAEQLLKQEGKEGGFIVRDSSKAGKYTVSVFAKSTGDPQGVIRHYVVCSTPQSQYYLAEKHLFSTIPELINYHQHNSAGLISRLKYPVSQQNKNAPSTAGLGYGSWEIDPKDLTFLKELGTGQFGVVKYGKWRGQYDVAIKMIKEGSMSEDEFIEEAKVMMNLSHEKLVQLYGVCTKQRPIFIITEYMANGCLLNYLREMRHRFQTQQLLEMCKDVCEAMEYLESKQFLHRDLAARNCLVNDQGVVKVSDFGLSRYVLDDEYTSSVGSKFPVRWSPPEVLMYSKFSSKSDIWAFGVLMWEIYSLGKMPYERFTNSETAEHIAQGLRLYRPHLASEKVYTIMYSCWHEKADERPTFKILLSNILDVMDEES
Procedure, shortened: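 Human BTK activity was measured with final 10 μM ATP and 100 nM polyGAT substrate in pH 7.5 Tris buffer with 10 mM MgCl2, DTT, Triton X-100 and casein.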

Chain of BTK (phospho-BTK) in human whole blood (Q06187 whole entry): as above

| IC50 [1] [µM] | IC50 [2] [µM] | Compound |
| --- | --- | --- |
| < 0.5 | < 0.01 | Cn1cc(Nc2nccc(-c3ccc(CNC(=O)c4cnn(C(C)(C)C)c4)c(CCO)c3)n2)cn1 [Example I-191, 1-(tert-butyl)-N-(2-(2-hydroxyethyl)-4-(2-((1-methyl-1H-pyrazol-4-yl)amino)pyrimidin-4-yl)benzyl)-1H-pyrazole-4-carboxamide] |
| < 0.5 | < 0.01 | Cc1cc(-c2ccnc(Nc3cnn(C)c3)n2)ccc1CN1CCc2c(cnn2C(C)(C)C)C1=O [Example I-192, 1-(tert-butyl)-5-(2-methyl-4-(2-((1-methyl-1H-pyrazol-4-yl)amino)pyrimidin-4-yl)benzyl)-6,7-dihydro-1H-pyrazolo[4,3-c]pyridin-4(5H)-one] |
| < 0.5 | < 0.01 | Cc1cc(-c2cc(Nc3cc4n(n3)CCC4)ncn2)ccc1CNC(=O)c1cnn(C(C)(C)C)c1 [Example I-193, 1-(tert-butyl)-N-(4-(6-((5,6-dihydro-4H-pyrrolo[1,2-b]pyrazol-2-yl)amino)pyrimidin-4-yl)-2-methylbenzyl)-1H-pyrazole-4-carboxamide] |
| < 0.5 | < 0.01 | Cc1cc(-c2ccnc(Nc3cnn4c3CCC4)n2)ccc1CNC(=O)N1CCC(C(C)(C)C)C1 (stereo not shown) [Example I-194, 3-(tert-butyl)-N-(4-(2-((5,6-dihydro-4H-pyrrolo[1,2-b]pyrazol-3-yl)amino)pyrimidin-4-yl)-2-methylbenzyl)pyrrolidine-1-carboxamide] |
| < 0.5 | < 0.01 | Cc1cc(-c2ccnc(Nc3cnn(C4CCN(C)CC4)c3)n2)ccc1CNC(=O)c1cc(C(C)(C)C)on1 [Example I-196, 5-(tert-butyl)-N-(2-methyl-4-(2-((1-(1-methylpiperidin-4-yl)-1H-pyrazol-4-yl)amino)pyrimidin-4-yl)benzyl)isoxazole-3-carboxamide] |
| < 0.5 | < 0.01 | Cc1cc(-c2ccnc(Nc3cnn(C4CCN(C)CC4)c3)n2)ccc1CNC(=O)c1cnn(C(C)(C)C)c1 [Example I-197, 1-(tert-butyl)-N-(2-methyl-4-(2-((1-(1-methylpiperidin-4-yl)-1H-pyrazol-4-yl)amino)pyrimidin-4-yl)benzyl)-1H-pyrazole-4-carboxamide] |

Continued, molecule first:

| Compound | IC50 [1] [µM] | IC50 [2] [µM] |
| --- | --- | --- |
| Cn1cc(Nc2nccc(-c3ccc4c(c3)OCCCC4NC(=O)N3CC(OC(C)(C)C)C3)n2)cn1 (stereo not shown) [Example I-189, 3-(tert-butoxy)-N-(8-(2-((1-methyl-1H-pyrazol-4-yl)amino)pyrimidin-4-yl)-2,3,4,5-tetrahydrobenzo[b]oxepin-5-yl)azetidine-1-carboxamide] | < 0.5 | < 0.01 |
| Cn1cc(Nc2nccc(-c3ccc(CNC(=O)N4CC(OC(C)(C)C)C4)c(CCO)c3)n2)cn1 [Example I-190, 3-(tert-butoxy)-N-(2-(2-hydroxyethyl)-4-(2-((1-methyl-1H-pyrazol-4-yl)amino)pyrimidin-4-yl)benzyl)azetidine-1-carboxamide] | < 0.5 | < 0.01 |
| Cn1cc(Nc2nccc(-c3ccc(CNC(=O)N4CC(OC(C)(C)C)C4)c(C(F)(F)F)c3)n2)cn1 [Example I-198, 3-(tert-butoxy)-N-(4-(2-((1-methyl-1H-pyrazol-4-yl)amino)pyrimidin-4-yl)-2-(trifluoromethyl)benzyl)azetidine-1-carboxamide] | < 0.5 | < 0.01 |
| CC(C)n1cc(Nc2nccc(-c3ccc(CNC(=O)N4CC(OC(C)(C)C)C4)c(C(F)(F)F)c3)n2)cn1 [Example I-199, 3-(tert-butoxy)-N-(4-(2-((1-isopropyl-1H-pyrazol-4-yl)amino)pyrimidin-4-yl)-2-(trifluoromethyl)benzyl)azetidine-1-carboxamide] | < 0.5 | < 0.01 |
| CN1CCC(n2cc(Nc3nccc(-c4ccc(CNC(=O)N5CC(OC(C)(C)C)C5)c(C(F)(F)F)c4)n3)cn2)CC1 [Example I-200, 3-(tert-butoxy)-N-(4-(2-((1-(1-methylpiperidin-4-yl)-1H-pyrazol-4-yl)amino)pyrimidin-4-yl)-2-(trifluoromethyl)benzyl)azetidine-1-carboxamide] | < 0.5 | < 0.01 |
